Here are results for two compounds from US7521463B2, “Immunomodulatory compounds” (University of Maryland, Baltimore, priority 2000, dated 2009).

The test system of data set [1] is OKT-3 activated Jurkat cells. Nature of the data set: Jurkat cell activation-dependent phosphorylation (OKT-3, anti-phosphotyrosine western blot). The data set is classed as cell-based. Conditions: for effect on tyrosine phosphorylation of Jurkat cellular proteins, dose response: OKT-3, 0.1, 1, 10 and 100 μM; for effect on cellular tyrosine phosphorylation stimulated by OKT-3: compound 100 μM, 5 min at 37° C. Here is the method: Phosphorylation in Jurkat cells activated by the monoclonal antibody, OKT-3, is correlated with T-cell activation.
A. Compounds are tested for their effect on OKT-3 activated Jurkat cells. OKT-3 is a monoclonal antibody against CD3-ε chain. Treatment of Jurkat cells with OKT-3 antibody for 5 min at 37° C. activates Jurkat cells and induces tyrosine phosphorylation of several cellular proteins. […] Experiments are carried out to determine if compounds of the invention, or known compounds which can serve as standards, affect cellular tyrosine phosphorylation stimulated by OKT-3 in Jurkat cells.
The assay is performed as follows: Jurkat cells (1×10^6 cells) in RPMI 1640 supplemented with 10% fetal bovine serum (FBS) are treated with OKT-3 antibody (0.2 μg) and compounds (100 μM) for 5 min at 37° C. Cultures are immediately placed on ice after the incubation period, washed 3 times with cold PBS and lysed in 20 μl of SDS-sample buffer. Samples are briefly sonicated and boiled for 5 min and applied to SDS-PAGE (12% gel). After SDS-PAGE, proteins are blotted onto Immobilon P membrane (Millipore) for western blot analysis. Membranes are blocked overnight with 5% dried milk in TBST (Tris buffered saline containing 1% triton X-100). After washing, blots are incubated with monoclonal anti-phosphotyrosine antibody for 1 h in TBST followed by 1 hr incubation with horseradish peroxidase (HRP)-conjugated goat anti-mouse IgG. Blots are developed using enhanced chemiluminescence (ECL, Pierce).
The assay is performed as follows: Western blot analyses using anti-phosphotyrosine antibody are performed. Compounds (e.g., inventive compounds I′, II′ and III′) are added at concentrations of 0.1, 1, 10 and 100 μM. Cells are cultured as above.

Another data set concerns Jurkat cells. Nature of the data set: Effect on Jurkat cell viability / growth. The following applies: 10 μM. The data set is classed as cell-based. Here is the method:
Compounds can be tested to determine whether they are cytotoxic or cytostatic. To test whether a compound which inhibits OKT-3-mediated stimulation of tyrosine phosphorylation has a cytotoxic effect on Jukat cells, its effect on the growth of Jurkat cells is tested.

In data set [2] the test system is IL-2 production in Jurkat cells. Nature of the data set: Inhibition of IL-2 production in OKT-3 treated Jurkat cells (RIA). Type of data set: cell-based, human. Here is the method:
Interleukin 2 (IL-2) is an autocrine growth factor for T cells, the production of which requires T cell antigen receptor and co-receptor generated activation signals in normal T cells. The production of IL-2 is a hallmark of T cell activation signaling, leading to the clonal expansion of antigen-specific T cell clones. In Jurkat cells, treatment of cells with OKT-3 leads to the production of IL-2. […] For example, about 50% inhibition of IL-2 production is observed when cells are treated with 10 μM compound III′ at the time of OKT-3 treatment. […] Unlike the complete inhibition of OKT-3 induced tyrosine phosphorylation, the inhibition of IL-2 production by compound III′ is partial.
The assay is performed as follows: Jurkat cells (1×10^6 cells) are treated with OKT-3 antibody (0.2 μg) in the presence or absence of compounds (e.g., Compound III′) (0.1, 1 and 10 μM) for 24 h in RPMI 1640+10% FBS. At the end of the incubation period, culture media are harvested and assayed for human IL-2 by RIA. Cells treated with OKT-3 only and PMA+Ionomycin serves as a positive control. Untreated cells serve as a negative control. IL-2 production is not detected in untreated cells. Cells treated with 10 μM of Compound III′ are shown to inhibit IL-2 production by 44%. The standard deviation is 0.23 pg/ml.

The next data set has as its target p56^lck (Homo sapiens, UniProt P06239). Nature of the data set: p56^lck kinase activity (general statement). The data set is classed as biochemical.

Entries after “also recorded” stand apart in the source; their conditions may differ.

Sequence of p56^lck (P06239 whole entry): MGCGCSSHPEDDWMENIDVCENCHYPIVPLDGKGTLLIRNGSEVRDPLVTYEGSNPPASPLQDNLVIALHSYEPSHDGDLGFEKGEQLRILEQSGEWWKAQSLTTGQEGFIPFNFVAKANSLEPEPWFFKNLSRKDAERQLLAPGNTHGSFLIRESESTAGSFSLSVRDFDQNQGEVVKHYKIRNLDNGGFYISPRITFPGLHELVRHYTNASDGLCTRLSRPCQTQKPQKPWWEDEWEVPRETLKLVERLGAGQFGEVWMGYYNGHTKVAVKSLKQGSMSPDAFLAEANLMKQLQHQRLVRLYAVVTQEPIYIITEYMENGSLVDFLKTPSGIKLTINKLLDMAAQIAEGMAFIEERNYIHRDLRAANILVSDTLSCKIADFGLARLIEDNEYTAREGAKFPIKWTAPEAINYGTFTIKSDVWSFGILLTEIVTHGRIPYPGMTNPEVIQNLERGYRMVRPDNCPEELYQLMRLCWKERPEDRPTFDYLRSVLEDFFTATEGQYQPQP

Take `O=C(Sc1ccccn1)c1ccc(Oc2ccc(Cl)cc2Cl)c([N+](=O)[O-])c1` [Compound III′]: the “effect on tyrosine phosphorylation at the lowest concentration” value in data set [1] (OKT-3, 0.1 μM) is “inhibits tyrosine phosphorylation”. In addition, in data set [1], the “effect on tyrosine phosphorylation of Jurkat cellular proteins, dose response” value is reported as “completely inhibits tyrosine phosphorylation of cellular proteins” and the “effect on cellular tyrosine phosphorylation stimulated by OKT-3” value was “inhibitory activity”. Also, in the data set on Jurkat cells, the “cytotoxic effect on Jurkat cells” value is “no cytotoxic effect is observed”, the “effect on the growth of Jurkat cells” value is recorded as “some cytostatic effect” and the “time after addition of compound at which Jurkat cells resume normal rate of growth” value came to 24 h. Also, in data set [2] (Homo sapiens, Jurkat, 24 h, 10 μM, at the time of OKT-3 treatment), the inhibition – broadly, the drop in the measured response relative to a control, in per cent – at 10 µM is about 50%. In addition, the “effect on IL-2 production at lower concentrations” value in data set [2] (lower concentrations (0.1, 1 μM), OKT-3, 24 h) was “no observable effect”. Further, the “effect on p56^lck kinase activity” value on p56^lck is “inhibits p56^lck kinase activity”.
Turning to `CC(=O)OCc1cccc2cccc(Sc3ccccc3C(=O)O)c12` [Compound I′], in data set [1], the “effect on tyrosine phosphorylation of Jurkat cellular proteins, dose response” value is “significantly stimulate tyrosine phosphorylation of Jurkat cellular proteins in a dose-dependent manner; also recorded: dose-dependent stimulation of tyrosine phosphorylation” and the “effect on cellular tyrosine phosphorylation stimulated by OKT-3” value is on record as “stimulatory activity”. The “effect on p56^lck kinase activity” value at p56^lck was “activates p56^lck kinase activity”.
